{
  "source": "patent US7135466B2",
  "about": "(Kirin Beer Kabushiki Kaisha, priority 1999, dated 2006)",
  "data": [
    {"biological_target": "T1, c-kit (Homo sapiens, UniProt P10721)", "T1 construct": "MO7e (human megakaryocytic leukemia cell line) which had been arrested for 20 hr; endogenous in cells; host or cells: MO7e human megakaryocytic leukemia cell line", "T1 sequence (P10721 26-976)": "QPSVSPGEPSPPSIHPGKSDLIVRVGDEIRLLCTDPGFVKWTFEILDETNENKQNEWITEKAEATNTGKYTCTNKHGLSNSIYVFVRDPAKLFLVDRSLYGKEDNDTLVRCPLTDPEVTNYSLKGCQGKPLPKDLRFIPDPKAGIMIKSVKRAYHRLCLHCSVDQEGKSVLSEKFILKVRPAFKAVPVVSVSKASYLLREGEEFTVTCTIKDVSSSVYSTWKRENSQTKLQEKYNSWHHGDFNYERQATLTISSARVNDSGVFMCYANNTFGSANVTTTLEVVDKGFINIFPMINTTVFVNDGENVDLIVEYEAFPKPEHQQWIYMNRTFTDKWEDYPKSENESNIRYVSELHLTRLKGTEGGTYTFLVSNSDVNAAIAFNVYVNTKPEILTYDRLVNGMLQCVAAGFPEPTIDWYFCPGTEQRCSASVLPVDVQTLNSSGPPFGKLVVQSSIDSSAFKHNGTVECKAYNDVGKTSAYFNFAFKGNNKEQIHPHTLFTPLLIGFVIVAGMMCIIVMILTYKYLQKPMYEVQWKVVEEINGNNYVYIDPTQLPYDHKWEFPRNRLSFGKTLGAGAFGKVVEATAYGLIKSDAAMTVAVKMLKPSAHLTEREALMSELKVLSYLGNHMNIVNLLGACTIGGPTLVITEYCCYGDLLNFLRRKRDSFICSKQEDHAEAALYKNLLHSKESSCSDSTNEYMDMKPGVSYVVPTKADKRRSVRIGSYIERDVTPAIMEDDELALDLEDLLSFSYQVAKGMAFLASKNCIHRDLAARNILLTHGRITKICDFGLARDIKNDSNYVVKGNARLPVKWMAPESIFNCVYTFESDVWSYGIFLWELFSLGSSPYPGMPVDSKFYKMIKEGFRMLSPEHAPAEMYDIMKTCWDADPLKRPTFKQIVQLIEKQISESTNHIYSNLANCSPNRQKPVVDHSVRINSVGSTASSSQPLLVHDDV", "assay": "Inhibitory activity against c-kit autophosphorylation (MO7e cells, h-SCF)", "format": "cell-based", "conditions": "MO7e cells, 50 ng/ml h-SCF; read-out: c-kit IC50", "description": "(§1) Inhibitory Activity Against c-kit Autophosphorylation\n(§2) MO7e (human megakaryocytic leukemia cell line) which had been arrested for 20 hr was seeded into 96 well plates at an amount of 2×10^5 per well. A solution of a test compound in DMSO was added, and a reaction was then allowed to proceed for one hr. Thereafter, the cells were stimulated by 50 ng/ml of h-SCF for 5 min, followed by replacement with lysate buffer to solubilize the cells.\n(§3) Next, the solubilized cell sap was transferred to a 96-well plate with an anti-phosphotyrosine antibody (PY-20) previously immobilized thereon, and a reaction was allowed to proceed. Thereafter, the cells were reacted with an anti-c-kit antibody (c-19, Santa Cruz) as a primary antibody and were labelled with GAR (anti-rabbit IgG, horseradish peroxidase, Amersham) as a secondary antibody. Color development was then carried out in a peroxidase color development kit (Sumitomo Bakelite Co., Ltd.), and the absorbance was measured at a wavelength of 450 nm.", "units": {"IC50": "nM"}, "values": [
      {"smiles": "COc1cc2nccc(Oc3ccc(OCC(=O)Nc4cccc(Cl)c4)cc3)c2cc1OC", "note": "[Example 788, N1-(3-Chlorophenyl)-2-{4-[(6,7-dimethoxy-4-quinolyl)oxy]phenoxy}acetamide]", "IC50": 122},
      {"smiles": "COc1cc2nccc(Oc3ccc(OCC(=O)Nc4ccc(C)cc4)cc3)c2cc1OC", "note": "[Example 786, N1-(4-Methylphenyl)-2-{4-[(6,7-dimethoxy-4-quinolyl)oxy]phenoxy}acetamide]", "IC50": 46}
    ]},
    {"biological_target": "T1, c-kit", "assay": "Inhibitory activity against c-kit autophosphorylation (MO7e cells, h-SCF)", "format": "cell-based", "conditions": "MO7e cells, h-SCF 50 ng/ml; read-out: c-kit IC50", "description": "as §1, §2, §3", "units": {"IC50": "nM"}, "values": [
      {"smiles": "C=CCCCOC(=O)Nc1cc(C)c(Oc2ccnc3cc(OC)c(OC)cc23)cc1C", "note": "[Example 267, 4-Pentenyl N-{4-[(6,7-dimethoxy-4-quinolyl)oxy]-2,5-dimethylphenyl}carbamate]", "IC50": 35},
      {"smiles": "COc1cc2nccc(Oc3cc(C)c(NC(=O)SCc4ccc(C)cc4)cc3C)c2cc1OC", "note": "[Example 109, 4-Methylbenzyl {4-[(6,7-dimethoxy-4-quinolyl)oxy]-2,5-dimethylanilino}methanethioate]", "IC50": 412},
      {"smiles": "C=CCCCOC(=O)Nc1ccc(Oc2ccnc3cc(OC)c(OC)cc23)c(C)c1C", "note": "[Example 268, 4-Pentenyl N-{4-[(6,7-dimethoxy-4-quinolyl)oxy]-2,3-dimethylphenyl}carbamate]", "IC50": 34},
      {"smiles": "COc1cc2nccc(Oc3ccc(NC(=O)SCc4ccc(C)cc4)cc3)c2cc1OC", "note": "[Example 107, 4-Methylbenzyl {4-[(6,7-dimethoxy-4-quinolyl)oxy]anilino}methanethioate]", "IC50": 372}
    ]},
    {"biological_target": "T1, c-kit", "assay": "Inhibitory activity against c-kit autophosphorylation (MO7e cells, h-SCF)", "format": "cell-based", "conditions": "MO7e cells, h-SCF stimulation; read-out: c-kit IC50", "description": "as §1, §2, §3", "units": {"IC50": "nM"}, "values": [
      {"smiles": "COc1cc2nccc(Oc3ccc(NC(=S)NC(=O)c4ccccc4Br)cc3)c2cc1OC", "note": "[Example 900, N-(2-Bromobenzoyl)-N′-{4-[(6,7-dimethoxy-4-quinolyl)oxy]phenyl}thiourea]", "IC50": 372},
      {"smiles": "CCOc1ccc(C(=O)NC(=S)Nc2ccc(Oc3ccnc4cc(OC)c(OC)cc34)c(Cl)c2)cc1", "note": "[Example 992, N-{3-Chloro-4-[(6,7-dimethoxy-4-quinolyl)oxy]phenyl}-N′-(4-ethoxybenzoyl)thiourea]", "IC50": 766},
      {"smiles": "COc1cc2nccc(Oc3ccc(SCCOc4ccccc4F)cc3)c2cc1OC", "note": "[Example 822]", "IC50": 451},
      {"smiles": "COc1cc2ncnc(Oc3ccc(NCCOc4ccccc4O)cc3)c2cc1OC", "note": "[Example 874, 2-(2-{4-[(6,7-Dimethoxy-4-quinazolinyl)oxy]anilino}ethoxy)phenol]", "IC50": 151},
      {"smiles": "COc1cc2nccc(Oc3ccc(NC(=S)NC(=O)c4ccccc4C)cc3F)c2cc1OC", "note": "[Example 912, N-{4-[(6,7-Dimethoxy-4-quinolyl)oxy]-3-fluorophenyl}-N′-(2-methylbenzoyl)thiourea]", "IC50": 497},
      {"smiles": "COc1cc2nccc(Oc3ccc(NC(=S)NC(=O)C4CCCC4)c(F)c3)c2cc1OC", "note": "[Example 1063, N-Cyclopentylcarbonyl-N′-{4-[(6,7-dimethoxy-4-quinolyl)oxy]-2-fluorophenyl}thiourea]", "IC50": 491},
      {"smiles": "COc1cc2ncnc(Oc3ccc(NC(=S)NC(=O)c4cccc(C(F)(F)F)c4)cc3)c2cc1OC", "note": "[Example 957, N-{4-[(6,7-Dimethoxy-4-quinazolinyl)oxy]phenyl}-N′-[3-(trifluoromethyl)benzoyl]thiourea]", "IC50": 136},
      {"smiles": "COc1cc2ncnc(Oc3ccc(NCCOc4ccccc4C)cc3)c2cc1OC", "note": "[Example 862, N-{4-[(6,7-Dimethoxy-4-quinazolinyl)oxy]phenyl}-N-[2-(2-methylphenoxy)ethyl]amine]", "IC50": 933},
      {"smiles": "COc1cc2nccc(Oc3ccc(NCCOc4ccccc4C)cc3C)c2cc1OC", "note": "[Example 876, N-{4-[(6,7-Dimethoxy-4-quinolyl)oxy]-3-methylphenyl}-N-[2-(2-methylphenoxy)ethyl]amine]", "IC50": 242},
      {"smiles": "COc1cc2nccc(Oc3ccc(SCCOc4ccccc4C(C)C)cc3)c2cc1OC", "note": "[Example 815, 4-(4-{[2-(2-Isopropylphenoxy)ethyl]sulfanyl}phenoxy)-6,7-dimethoxyquinoline]", "IC50": 180},
      {"smiles": "COc1cc2nccc(Oc3ccc(NC(=S)NC(=O)c4ccc(Cl)cc4)cc3F)c2cc1OC", "note": "[Example 971, N-(4-Chlorobenzoyl)-N′-{4-[(6,7-dimethoxy-4-quinolyl)oxy]-3-fluorophenyl}thiourea]", "IC50": 523},
      {"smiles": "COc1cc2nccc(Oc3ccc(SCCOc4ccccc4C)cc3)c2cc1OC", "note": "[Example 817, 6,7-Dimethoxy-4-(4-{[2-(2-methylphenoxy)ethyl]sulfanyl}phenoxy)quinoline]", "IC50": 195},
      {"smiles": "COc1cc2nccc(Oc3ccc(NC(=S)NC(=O)c4ccccc4Br)cc3Cl)c2cc1OC", "note": "[Example 922, N-(2-Bromobenzoyl)-N′-{3-chloro-4-[(6,7-dimethoxy-4-quinolyl)oxy]phenyl}thiourea]", "IC50": 365},
      {"smiles": "COc1cc2nccc(Oc3ccc(NCCOc4ccccc4)cc3C)c2cc1OC", "note": "[Example 875, N-{4-[(6,7-Dimethoxy-4-quinolyl)oxy]-3-methylphenyl}-N-(2-phenoxyethyl)amine]", "IC50": 115},
      {"smiles": "COc1cc2nccc(Oc3ccc(NC(=S)NC(=O)CCc4ccccc4)c(F)c3)c2cc1OC", "note": "[Example 1026, N-{4-[(6,7-Dimethoxy-4-quinolyl)oxy]-2-fluorophenyl}-N′-(3-phenylpropanoyl)thiourea]", "IC50": 652},
      {"smiles": "COc1cc2nccc(Oc3ccc(SCCCCOc4cccc(C)c4)cc3)c2cc1OC", "note": "[Example 844, 6,7-Dimethoxy-4-(4-{[4-(3-methylphenoxy)butyl]sulfanyl}phenoxy)quinoline]", "IC50": 450},
      {"smiles": "COc1cc2nccc(Oc3ccc(NCCOc4ccccc4OC)cc3)c2cc1OC", "note": "[Example 853, N-{4-[(6,7-Dimethoxy-4-quinolyl)oxy]phenyl}-N-[2-(2-methoxyphenoxy)ethyl]amine]", "IC50": 102}
    ]},
    {"biological_target": "T1, c-kit", "assay": "Inhibitory activity against c-kit autophosphorylation (MO7e cells, h-SCF)", "format": "cell-based", "conditions": "Mo7e, figure in parentheses in −( ); at 1000 nM", "description": "as §1, §2, §3", "units": {"inhibition at 1 µM": "%"}, "values": [
      {"smiles": "CCCCC(CCCC)OC(=O)Nc1ccc(Oc2ncnc3cc(OC)c(OC)cc23)cc1Cl", "note": "[Example 372, 1-Butylpentyl N-{2-chloro-4-[(6,7-dimethoxy-4-quinazolinyl)oxy]phenyl}carbamate]", "inhibition at 1 µM": 14},
      {"smiles": "COc1cc2nccc(Oc3ccc(NC(=S)NC(=O)c4ccccc4F)c(F)c3)c2cc1OC", "note": "[Example 906, N-{4-[(6,7-Dimethoxy-4-quinolyl)oxy]-2-fluorophenyl}-N′-(2-fluorobenzoyl)thiourea]", "inhibition at 1 µM": 29},
      {"smiles": "COc1cc2ncnc(Oc3ccc(NC(=S)NC(=O)c4ccc(Cl)cc4Cl)cc3)c2cc1OC", "note": "[Example 1207, N-(2,4-Dichlorobenzoyl)-N′-{4-[(6,7-dimethoxy-4-quinazolinyl)oxy]phenyl}thiourea]", "inhibition at 1 µM": 16},
      {"smiles": "COc1cc2nccc(Oc3ccc(NC(=S)NC(=O)c4ccco4)c(F)c3)c2cc1OC", "note": "[Example 1035, N-{4-[(6,7-Dimethoxy-4-quinolyl)oxy]-2-fluorophenyl}-N′-(2-furylcarbonyl)thiourea]", "inhibition at 1 µM": 17},
      {"smiles": "COc1cc2nccc(Oc3ccc(NC(=S)NC(=O)c4c(Cl)cccc4Cl)cc3F)c2cc1OC", "note": "[Example 1112, N-(2,6-Dichlorobenzoyl)-N′-{4-[(6,7-dimethoxy-4-quinolyl)oxy]-3-fluorophenyl}thiourea]", "inhibition at 1 µM": 19},
      {"smiles": "COc1cc2nccc(Oc3ccc(NC(=S)NC(=O)c4ccccc4OC)cc3Cl)c2cc1OC", "note": "[Example 923, N-{3-Chloro-4-[(6,7-dimethoxy-4-quinolyl)oxy]phenyl}-N′-(2-methoxybenzoyl)thiourea]", "inhibition at 1 µM": 25},
      {"smiles": "COc1cc2nccc(Oc3ccc(NC(=S)NC(=O)c4ccccc4C)c(F)c3)c2cc1OC", "note": "[Example 904, N-{4-[(6,7-Dimethoxy-4-quinolyl)oxy]-2-fluorophenyl}-N′-(2-methylbenzoyl)thiourea]", "inhibition at 1 µM": 46},
      {"smiles": "COc1cc2ncnc(Oc3ccc(NC(=S)NC(=O)c4ccccc4)cc3)c2cc1OC", "note": "[Example 926, N-Benzoyl-N′-{4-[(6,7-dimethoxy-4-quinazolinyl)oxy]phenyl}thiourea]", "inhibition at 1 µM": 31},
      {"smiles": "COc1cc2ncnc(Oc3ccc(NC(=S)NC(=O)c4ccc(Cl)cc4)cc3)c2cc1OC", "note": "[Example 985, N-(4-Chlorobenzoyl)-N′-{4-[(6,7-dimethoxy-4-quinazolinyl)oxy]phenyl}thiourea]", "inhibition at 1 µM": 31},
      {"smiles": "COc1cc2nccc(Oc3ccc(NC(=S)NC(=O)c4ccccc4)c(F)c3)c2cc1OC", "note": "[Example 903, N-Benzoyl-N′-{4-[(6,7-dimethoxy-4-quinolyl)oxy]-2-fluorophenyl}thiourea]", "inhibition at 1 µM": 34},
      {"smiles": "COc1cc2nccc(Oc3ccc(NC(=S)NC(=O)c4ccccc4C)c(C)c3)c2cc1OC", "note": "[Example 1090, N-{4-[(6,7-Dimethoxy-4-quinolyl)oxy]-2-methylphenyl}-N′-(2-methylbenzoyl)thiourea]", "inhibition at 1 µM": 30},
      {"smiles": "COc1cc2nccc(Oc3ccc(NC(=S)NC(=O)c4ccc(Cl)cc4Cl)c(F)c3)c2cc1OC", "note": "[Example 1011, N-(2,4-Dichlorobenzoyl)-N′-{4-[(6,7-dimethoxy-4-quinolyl)oxy]-2-fluorophenyl}thiourea]", "inhibition at 1 µM": 20}
    ]},
    {"biological_target": "T1, c-kit", "assay": "Inhibitory activity against c-kit autophosphorylation (MO7e cells, h-SCF)", "format": "cell-based", "conditions": "Mo7e, figure within parentheses in −( ) or >1000( ); at 1000 nM", "description": "as §1, §2, §3", "units": {"inhibition at 1 µM": "%"}, "values": [
      {"smiles": "COc1cc2ncnc(Oc3ccc(NC(=O)NCCN4CCCC4)cc3)c2cc1OC", "note": "[Example 621, N-{4-[(6,7-Dimethoxy-4-quinazolinyl)oxy]phenyl}-N′-(2-tetrahydro-1H-1-pyrrolylethyl)urea]", "inhibition at 1 µM": 30},
      {"smiles": "C#CCC(CC)OC(=O)Nc1ccc(Oc2ncnc3cc(OC)c(OC)cc23)cc1OC", "note": "(centres unmarked) [Example 502, 1-Ethyl-3-butynyl N-{4-[(6,7-dimethoxy-4-quinazolinyl)oxy]-2-methoxyphenyl}carbamate]", "inhibition at 1 µM": 23}
    ]},
    {"biological_target": "T1, c-kit", "assay": "Inhibitory activity against c-kit autophosphorylation (MO7e cells, h-SCF)", "format": "cell-based", "conditions": "figure in parentheses in −( ); at 1000 nM; 1 µM", "description": "as §1, §2, §3", "values": [
      {"smiles": "COc1cc2nccc(Oc3ccc(NC(=S)NC(=O)Cc4ccccc4)c(C)c3C)c2cc1OC", "note": "[Example 1206, N-{4-[(6,7-Dimethoxy-4-quinolyl)oxy]-2,3-dimethylphenyl}-N′-(2-phenylacetyl)thiourea]", "c-kit inhibition (%) at 1000 nM": "−(27) %"}
    ]}
  ]
}
